Measured values: patent publication US10745382B2 (BRISTOL-MYERS SQUIBB COMPANY, priority 2015, dated 2020)

The molecules below were run against T1, PD-1/PD-L1 (Homo sapiens, UniProt Q9NZQ7) (assay: PD-1/PD-L1 Homogenous Time-Resolved Fluorescence (HTRF) binding assay). Settings: PD-L1-His 10 nM, PD-1-Ig 20 nM; numeric IC50; read-out: Range or IC50.
T1 construct: made in house; host or cells: HEK293T
In short: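 Detection by europium cryptate anti-Ig plus APC anti-His (1 nM and 20 nM final) with HTRF signal. Buffer was dPBS, 0.1% BSA, 0.05% Tween-20.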

T1 sequence (Q9NZQ7 with tags, fused parts or gaps): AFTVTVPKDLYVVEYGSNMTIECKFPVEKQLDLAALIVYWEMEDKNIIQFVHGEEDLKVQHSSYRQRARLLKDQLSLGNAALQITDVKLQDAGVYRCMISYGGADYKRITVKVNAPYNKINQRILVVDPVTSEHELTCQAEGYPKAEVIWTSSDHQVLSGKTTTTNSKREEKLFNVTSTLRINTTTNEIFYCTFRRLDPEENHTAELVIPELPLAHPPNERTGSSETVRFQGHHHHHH

CCOC(=O)C1(CO)CCN(CCCOc2cccc(-c3cccc(COc4cc(OCc5cncc(C#N)c5)c(CN5CCC(CO)(C(=O)OCC)C5)cc4Cl)c3C)c2Cl)C1 (stereo not shown) [Example 1102, ethyl 1-(3-((2-chloro-3′-((2-chloro-5-((5-cyanopyridin-3-yl)methoxy)-4-((3-(ethoxycarbonyl)-3-(hydroxymethyl)pyrrolidin-1-yl)methyl)phenoxy)methyl)-2′-methyl-[1,1′-biphenyl]-3-yl)oxy)propyl)-3-(hydroxymethyl)pyrrolidine-3-carboxylate] showed an IC50 of 2.8 nM.

Same assay, conditions: PD-L1-His 10 nM, PD-1-Ig 20 nM; value given as range class; read-out: Range or IC50

Cc1c(COc2cc(OCc3cncc(C#N)c3)c(CN(C)[C@@H](CCO)C(=O)O)cc2Cl)cccc1-c1cccc(OCCCN2CC[C@@H](O)C2)c1C [Example 4135, N-(5-chloro-2-((5-cyanopyridin-3-yl)methoxy)-4-((3′-(3-((R)-3-hydroxypyrrolidin-1-yl)propoxy)-2,2′-dimethyl-[1,1′-biphenyl]-3-yl)methoxy)benzyl)-N-methyl-L-homoserine] and Cc1c(COc2cc(OCc3cncc(C#N)c3)c(CN[C@@H](CO)C(=O)O)cc2Cl)cccc1-c1cccc(OCCCN2CCC(O)C2)c1C#N (stereo in doubt) [Example 3009, (S)-2-((5-chloro-4-((2′-cyano-3′-(3-((R)-3-hydroxypyrrolidin-1-yl)propoxy)-2-methyl-[1,1′-biphenyl]-3-yl)methoxy)-2-((5-cyanopyridin-3-yl)methoxy)benzyl)amino)-3-hydroxypropanoic Acid] fall in the same range of IC50: 0.21 to 10 nM for the first, 0.21 to 10 nM for the second.

Compared with Cc1c(COc2cc(OCc3cncc(C#N)c3)c(CN3CCCC[C@H]3C(=O)O)cc2Cl)cccc1-c1cccc(C(=O)N2CC2)c1C [Example 4001, (S)-1-(4-((3′-(aziridine-1-carbonyl)-2,2′-dimethyl-[1,1′-biphenyl]-3-yl)methoxy)-5-chloro-2-((5-cyanopyridin-3-yl)methoxy)benzyl)piperidine-2-carboxylic Acid], CCNC(=O)c1cccc(-c2cccc(COc3cc(OCc4cncc(C#N)c4)c(CN4CCCC[C@H]4C(=O)O)cc3Cl)c2C)c1C [Example 4006, (S)-1-(5-chloro-2-((5-cyanopyridin-3-yl)methoxy)-4-((3′-(ethylcarbamoyl)-2,2′-dimethyl-[1,1′-biphenyl]-3-yl)methoxy)benzyl)piperidine-2-carboxylic Acid] is higher in IC50: 0.21 to 10 nM for the first, 10 to 100 nM for the second.

Cc1c(COc2cc(OCc3cncc(C#N)c3)c(CNC(C)(CO)CO)cc2Cl)cccc1-c1cccc(CNCCN2CCOCC2)c1Cl [Example 2092, 5-((4-chloro-5-((2′-chloro-2-methyl-3′-(((2-morpholinoethyl)amino)methyl)-[1,1′-biphenyl]-3-yl)methoxy)-2-(((1,3-dihydroxy-2-methylpropan-2-yl)amino)methyl)phenoxy)methyl)nicotinonitrile] and Cc1c(COc2cc(OCc3cncc(C#N)c3)c(CNC(C)(CO)CO)cc2Cl)cccc1-c1cccc(OCCCN2CC[C@@H](O)C2)c1Cl [Example 2104, (R)-5-((4-chloro-5-((2′-chloro-3′-(3-(3-hydroxypyrrolidin-1-yl)propoxy)-2-methyl-[1,1′-biphenyl]-3-yl)methoxy)-2-(((1,3-dihydroxy-2-methylpropan-2-yl)amino)methyl)phenoxy)methyl)nicotinonitrile] fall in the same range of IC50: 0.21 to 10 nM for the first, 0.21 to 10 nM for the second.

Cc1c(COc2cc(OCc3cncc(C#N)c3)c(CN[C@@](C)(CO)C(=O)O)cc2Cl)cccc1-c1cccc(OCCCN2CCC(O)C2)c1C#N (stereo in doubt) [Example 3008, (S)-2-((5-chloro-4-((2′-cyano-3′-(3-((R)-3-hydroxypyrrolidin-1-yl)propoxy)-2-methyl-[1,1′-biphenyl]-3-yl)methoxy)-2-((5-cyanopyridin-3-yl)methoxy)benzyl)amino)-3-hydroxy-2-methylpropanoic Acid] and COC(=O)C1(O)CCN(CCCOc2cccc(-c3cccc(COc4cc(OCc5cncc(C#N)c5)c(CN[C@](C)(CO)C(=O)O)cc4Cl)c3C)c2C)CC1 [Example 1030, (R)-2-((5-chloro-2-((5-cyanopyridin-3-yl)methoxy)-4-((3′-(3-(4-hydroxy-4-(methoxycarbonyl)piperidin-1-yl)propoxy)-2,2′-dimethyl-[1,1′-biphenyl]-3-yl)methoxy)benzyl)amino)-3-hydroxy-2-methylpropanoic Acid] fall in the same range of IC50: 0.21 to 10 nM for the first, 0.21 to 10 nM for the second.

Cc1cc(OCc2cccc(-c3cccc(OCCCN4CC[C@@H](O)C4)c3C)c2C)cc(OCc2cncc(C#N)c2)c1CNC(CO)CO [Example 4087, (R)-5-((2-(((1,3-dihydroxypropan-2-yl)amino)methyl)-5-((3′-(3-(3-hydroxypyrrolidin-1-yl)propoxy)-2,2′-dimethyl-[1,1′-biphenyl]-3-yl)methoxy)-3-methylphenoxy)methyl)nicotinonitrile] and CC(=O)NC1CCN(CCCOc2cccc(-c3cccc(COc4cc(OCc5cncc(C#N)c5)c(CNC(CO)CO)cc4Cl)c3C)c2Cl)CC1 [Example 2062, N-(1-(3-((2-chloro-3′-((2-chloro-5-((5-cyanopyridin-3-yl)methoxy)-4-(((1,3-dihydroxypropan-2-yl)amino)methyl)phenoxy)methyl)-2′-methyl-[1,1′-biphenyl]-3-yl)oxy)propyl)piperidin-4-yl)acetamide] fall in the same range of IC50: 0.21 to 10 nM for the first, 0.21 to 10 nM for the second.

Cc1c(OCCCN2CC[C@@H](O)C2)cccc1-c1cccc(COc2cc(OCC3CC3)c(CNC(CO)CO)cc2Cl)c1Cl [Example 2319, (R)-2-((5-chloro-4-((2-chloro-3′-(3-(3-hydroxypyrrolidin-1-yl)propoxy)-2′-methyl-[1,1′-biphenyl]-3-yl)methoxy)-2-(cyclopropylmethoxy)benzyl)amino)propane-1,3-diol] and Cc1c(COc2cc(OCc3cncc(C#N)c3)c(CN[C@H](CO)C(=O)O)cc2Cl)cccc1-c1cccc(OCCCN2CC[C@@H](O)C2)c1 [Example 1016, (R)-2-((5-chloro-2-((5-cyanopyridin-3-yl)methoxy)-4-((3′-(3-((R)-3-hydroxypyrrolidin-1-yl)propoxy)-2-methyl-[1,1′-biphenyl]-3-yl)methoxy)benzyl)amino)-3-hydroxypropanoic Acid] fall in the same range of IC50: 0.21 to 10 nM for the first, 0.21 to 10 nM for the second.

Cc1c(COc2cc(OCc3cncc(C#N)c3)c(CNC(CO)(CO)CO)cc2Cl)cccc1-c1cccc(CN(C)CCN2CCS(=O)(=O)CC2)c1C [Example 4083, 5-((4-chloro-2-(((1,3-dihydroxy-2-(hydroxymethyl)propan-2-yl)amino)methyl)-5-((3′-(((2-(1,1-dioxidothiomorpholino)ethyl)(methyl)amino)methyl)-2,2′-dimethyl-[1,1′-biphenyl]-3-yl)methoxy)phenoxy)methyl)nicotinonitrile] and Cc1c(COc2cc(OCc3cncc(C#N)c3)c(CNC[C@H](O)CO)cc2Cl)cccc1-c1cccc(OCCCN2CC(N(C)C)C2)c1Cl [Example 2028, (S)-5-((4-chloro-5-((2′-chloro-3′-(3-(3-(dimethylamino)azetidin-1-yl)propoxy)-2-methyl-[1,1′-biphenyl]-3-yl)methoxy)-2-(((2,3-dihydroxypropyl)amino)methyl)phenoxy)methyl)nicotinonitrile] fall in the same range of IC50: 0.21 to 10 nM for the first, 0.21 to 10 nM for the second.

Work on Cc1c(COc2cc(OCc3cncc(C#N)c3)c(CNC(CO)CO)cc2Cl)cccc1-c1cccc(Nc2cc(N3CCOCC3)ncn2)c1C [Example 2350, 5-((4-chloro-2-(((1,3-dihydroxypropan-2-yl)amino)methyl)-5-((2,2′-dimethyl-3′-((6-morpholinopyrimidin-4-yl)amino)-[1,1′-biphenyl]-3-yl)methoxy)phenoxy)methyl)nicotinonitrile] yielded an IC50 of 0.21 to 10 nM.
